From ChEMBL document CHEMBL1137758, “Biphenyl C-cyclopropylalkylamides: New scaffolds for targeting estrogen receptor beta” (Bioorg Med Chem Lett, 2009)

Key:
[1] = target: T1, Estrogen receptor (Homo sapiens) (UniProt P03372); assay: Displacement of fluorescein-labeled estradiol from human recombinant ERalpha at 5 uM by fluorescence polarization assay
T1 sequence (whole entry): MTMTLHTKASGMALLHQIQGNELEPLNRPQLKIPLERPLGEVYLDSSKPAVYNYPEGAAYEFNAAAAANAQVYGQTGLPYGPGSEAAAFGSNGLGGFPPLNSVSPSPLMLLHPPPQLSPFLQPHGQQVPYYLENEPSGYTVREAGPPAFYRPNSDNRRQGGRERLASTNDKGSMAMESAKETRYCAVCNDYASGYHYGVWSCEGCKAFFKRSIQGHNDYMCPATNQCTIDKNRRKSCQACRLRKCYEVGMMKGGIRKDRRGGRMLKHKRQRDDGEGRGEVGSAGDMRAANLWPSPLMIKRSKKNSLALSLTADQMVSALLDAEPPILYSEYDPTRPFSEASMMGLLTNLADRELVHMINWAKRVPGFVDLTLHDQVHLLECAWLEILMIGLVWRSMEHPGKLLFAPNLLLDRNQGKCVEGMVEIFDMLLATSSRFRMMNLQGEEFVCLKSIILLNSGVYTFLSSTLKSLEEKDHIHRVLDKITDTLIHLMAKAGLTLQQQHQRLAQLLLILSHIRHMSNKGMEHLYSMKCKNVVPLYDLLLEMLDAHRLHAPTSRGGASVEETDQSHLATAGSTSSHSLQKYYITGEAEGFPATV

Estrogen receptor beta [2] = target: T2, Estrogen receptor beta (Homo sapiens, UniProt Q92731); assay: Displacement of fluorescein-labeled estradiol from human recombinant ERbeta at 1 uM by fluorescence polarization assay
[3] = target: T1, Estrogen receptor (Homo sapiens); assay: Displacement of fluorescein-labeled estradiol from human recombinant ERalpha at 1 uM by fluorescence polarization assay
Estrogen receptor beta [4] = target: T2, Estrogen receptor beta; assay: Displacement of fluorescein-labeled estradiol from human recombinant ERbeta at 0.2 uM by fluorescence polarization assay
Estrogen receptor beta [5] = target: T2, Estrogen receptor beta; assay: Displacement of fluorescein-labeled estradiol from human recombinant ERbeta at 5 uM by fluorescence polarization assay
[6] = target: T1, Estrogen receptor (Homo sapiens); assay: Displacement of fluorescein-labeled estradiol from human recombinant ERalpha at 0.2 uM by fluorescence polarization assay

T2 sequence (Q92731 whole entry): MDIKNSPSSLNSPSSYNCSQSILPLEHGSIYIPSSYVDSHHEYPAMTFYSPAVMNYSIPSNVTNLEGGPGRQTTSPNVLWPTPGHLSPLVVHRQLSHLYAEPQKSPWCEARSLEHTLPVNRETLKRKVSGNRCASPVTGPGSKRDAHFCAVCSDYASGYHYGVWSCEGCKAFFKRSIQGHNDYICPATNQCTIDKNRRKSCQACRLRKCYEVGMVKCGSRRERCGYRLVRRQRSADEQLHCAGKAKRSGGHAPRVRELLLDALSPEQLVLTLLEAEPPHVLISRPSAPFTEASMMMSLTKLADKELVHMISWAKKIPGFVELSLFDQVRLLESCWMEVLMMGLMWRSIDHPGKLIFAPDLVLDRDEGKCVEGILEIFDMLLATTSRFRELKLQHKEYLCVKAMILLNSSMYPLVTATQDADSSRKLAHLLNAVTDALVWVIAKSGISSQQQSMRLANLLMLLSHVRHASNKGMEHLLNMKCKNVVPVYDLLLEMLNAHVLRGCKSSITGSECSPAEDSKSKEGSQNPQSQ

| Activity [1] [%] | Activity (Estrogen receptor beta [2]) [%] | Activity [3] [%] | Activity (Estrogen receptor beta [4]) [%] | Activity (Estrogen receptor beta [5]) [%] | Activity [6] [%] | Structure (SMILES) |
| --- | --- | --- | --- | --- | --- | --- |
| 53 | 2 | 63 | 2 | 10 | 64 | CCCC[C@@H]1C[C@H]1[C@@H](NC(=O)c1cccnc1)c1ccc(-c2ccccc2)cc1 |
| 46 | 8 | 14 | 7 | 7 | 72 | CCC/C=C(\CCC)[C@@H](NS(=O)(=O)c1ccc(C(F)(F)F)cc1)c1ccc(-c2ccccc2)cc1 |
| 88 | 17 | 70 | 15 | 29 | 58 | CCC[C@@H]1C[C@@]1(CCC)[C@@H](NS(=O)(=O)c1cccc2cccnc12)c1ccc(-c2ccccc2)cc1 |
| 73 | 7 | 68 | 11 | 7 | 68 | C=C(CCC)[C@@H](NC(=O)c1ccccc1Cl)c1ccccc1 |
| -44 | -1 | 30 | 2 | -5 | 5 | CCC[C@@H]1C[C@@]1(CCC)[C@@H](NP(=O)(c1ccccc1)c1ccccc1)c1ccc(Cl)cc1 |
| 67 | 11 | 28 | 14 | 13 | 56 | CCC/C=C(\CCC)[C@@H](NS(=O)(=O)c1cccc2cccnc12)c1ccc(-c2ccccc2)cc1 |
| 28 | 8 | 33 | 2 | 14 | 47 | CCCC[C@@H]1C[C@H]1[C@@H](NC(=O)Cc1ccccc1)c1ccc(-c2ccccc2)cc1 |
| 37 | -7 | 24 | -9 | 5 | 21 | C=C(CCCC)[C@@H](NC(=O)c1ccc(C(=O)OC)cc1)c1ccccc1 |
| -6 | -6 | 17 | -8 | -5 | 7 | CCC[C@@H]1C[C@@]1(CCC)[C@@H](NC(=O)Cc1ccccc1)c1ccc(-c2ccccc2)cc1 |
| 54 | 12 | 47 | 6 | 16 | -69 | CCC/C=C(\CCC)[C@@H](NS(=O)(=O)c1ccc(-c2ccccc2)cc1)c1ccc(C(=O)OC)cc1 |
| 48 | 1 | 33 | -9 | 13 | 32 | CCCC[C@@H]1C[C@H]1[C@@H](NC(=O)c1ccccc1)c1ccc(C(F)(F)F)cc1 |
| 73 | 5 | 39 | -2 | 25 | 26 | CCC[C@@H]1C[C@@]1(CCC)[C@@H](NC(=O)c1ccco1)c1ccc(C(Cl)(Cl)Cl)cc1 |
| 13 | -12 | 13 | -10 | -4 | -67 | C=C(CCCC)[C@@H](NC(=O)C(C)(C)C)c1ccccc1 |
| 91 | 7 | 65 | 8 | 20 | 63 | CCCC[C@@H]1C[C@H]1[C@@H](NC(=O)c1ccco1)c1ccccc1 |
| -6 | 6 | 42 | 0 | 4 | 52 | CCCC[C@@H]1C[C@H]1[C@@H](NC(=O)c1ccc(-c2ccccc2)cc1)c1ccc(-c2ccccc2)cc1 |
| 41 | -4 | 52 | -5 | 2 | 52 | CCCC[C@@H]1C[C@@]1(C)[C@@H](NS(=O)(=O)c1cccc2cccnc12)c1ccc(-c2ccccc2)cc1 |
| 38 | -3 | 24 | -13 | 8 | -14 | CCC/C=C(\CCC)[C@@H](NC(=O)c1ccc(C(=O)OC)cc1)c1ccc(C(=O)OC)cc1 |
| 27 | -3 | 25 | -1 | 4 | 27 | CCC/C=C(\CCC)[C@@H](NC(=O)c1ccc(-c2ccccc2)cc1)c1ccc(C(=O)OC)cc1 |
| 45 | 1 | 45 | -2 | 15 | 20 | CCCC[C@@H]1C[C@H]1[C@@H](NC(=O)c1ccc(C(F)(F)F)cc1)c1ccc(C(=O)OC)cc1 |

Continued, compound first:

| Structure (SMILES) | Activity [1] [%] | Activity (Estrogen receptor beta [2]) [%] | Activity [3] [%] | Activity (Estrogen receptor beta [4]) [%] | Activity (Estrogen receptor beta [5]) [%] | Activity [6] [%] |
| --- | --- | --- | --- | --- | --- | --- |
| CCC/C=C(\CCC)[C@@H](NC(=O)CC(C)C)c1ccccc1 | 110 | 3 | 84 | -4 | 22 | 69 |
| CCC/C=C(\CCC)[C@@H](NC(=O)C(C)(C)C)c1ccc(C(=O)OC)cc1 | 63 | -4 | 42 | 1 | 10 | 27 |
| CCC/C=C(\CCC)[C@@H](NS(=O)(=O)c1ccc(C(F)(F)F)cc1)c1ccc(C(=O)OC)cc1 | 90 | 29 | 86 | 15 | 43 | 63 |
| CCC/C=C(\CCC)[C@@H](NP(=O)(c1ccccc1)c1ccccc1)c1ccc(-c2ccccc2)cc1 | -77 | -10 | 11 | 19 | -25 | 46 |
| CCC/C=C(\CCC)[C@@H](NC(=O)CCc1ccccc1)c1ccc(C(F)(F)F)cc1 | 67 | 13 | 31 | 8 | 17 | 56 |
| CCC/C=C(\CCC)[C@@H](NC(=O)c1ccc(C(F)(F)F)cc1)c1ccc(C(F)(F)F)cc1 | 61 | 5 | 32 | 10 | 5 | -7 |
| CCC/C=C(\CCC)[C@@H](NC(=O)c1ccc(C(F)(F)F)cc1)c1ccccc1 | 68 | 11 | 59 | 10 | 16 | 47 |
| CCCC[C@@H]1C[C@H]1C(NC(=O)c1ccco1)c1ccc(C(=O)OC)cc1 (single isomer, unassigned) | 89 | 2 | 84 | 8 | 15 | 64 |
| CCC/C=C(\CCC)[C@@H](NS(=O)(=O)c1cccc2cccnc12)c1ccc(C(=O)OC)cc1 | 54 | 24 | 111 | 7 | 42 | 54 |
| CCCC[C@@H]1C[C@H]1[C@@H](NC(=O)c1ccccc1)c1ccc(C(=O)OC)cc1 | 75 | -2 | 54 | -3 | 6 | 54 |
| C=C(CCCC)[C@@H](NC(=O)c1cccs1)c1ccccc1 | 54 | -3 | 40 | -1 | 8 | 67 |
| CCCC[C@@H]1C[C@H]1[C@@H](NC(=O)c1ccco1)c1ccc(C(F)(F)F)cc1 | 57 | 2 | 15 | 0 | 22 | 6 |
| CCC/C=C(\CCC)[C@@H](NS(=O)(=O)c1ccc(C(F)(F)F)cc1)c1ccccc1 | 90 | 10 | 74 | -1 | 30 | 47 |
| CCCC[C@@H]1C[C@H]1[C@@H](NC(=O)c1cccs1)c1ccc(-c2ccccc2)cc1 | 37 | 8 | 54 | -1 | 5 | 58 |
| CCCC[C@@H]1C[C@H]1[C@@H](NC(=O)c1ccco1)c1ccc(-c2ccccc2)cc1 | 54 | 0 | 57 | -2 | 13 | 58 |
| CCC/C=C(\CCC)[C@@H](NS(=O)(=O)c1ccc(C(Cl)(Cl)Cl)cc1)c1ccccc1 | 95 | 13 | 61 | 6 | 42 | 42 |
| CCCC[C@@H]1C[C@H]1[C@@H](NC(=O)c1ccccc1)c1ccc(-c2ccccc2)cc1 |  | 31 | 77 | 26 | 46 | 72 |
